Source: the supplement of paper PMC10307832

Key:
Experiment in all cases: relative viability (nuclei count vs DMSO), 5 days (fraction); higher = more cells survive
NCI-H322M = system: NCI-H322M
Summary of the method: (§1)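 Relative viability equals treated-well nuclei counts divided by vehicle-well nuclei counts. Counts came from 4× images of lung cancer cell lines grown in 1536-well plates for 5 days after pin-tool dosing on the day after seeding. Dosing used one drug alone or a fixed anchor-drug dose plus five library-drug doses (not always all listed) in √10 steps, and values are medians of duplicate plates.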

SK-MES-1 = system: SK-MES-1
Summary of the method: as §1

NCI-H2085 = system: NCI-H2085
Summary of the method: as §1

NCI-H838 = system: NCI-H838
Summary of the method: as §1

NCI-H1792 = system: NCI-H1792
Summary of the method: as §1

NCI-H2087 = system: NCI-H2087
Summary of the method: as §1

NCI-H1355 = system: NCI-H1355
Summary of the method: as §1

ABC-1 = system: ABC-1
Summary of the method: as §1

CAL-12T = system: CAL-12T
Summary of the method: as §1

LK-2 = system: LK-2
Summary of the method: as §1

A-427 = system: A-427
Summary of the method: as §1

NCI-H1651 = system: NCI-H1651
Summary of the method: as §1

NCI-H2228 = system: NCI-H2228
Summary of the method: as §1

PC-3 [JPC-3] = system: PC-3 [JPC-3]
Summary of the method: as §1

NCI-H661 = system: NCI-H661
Summary of the method: as §1

UMC-11 = system: UMC-11
Summary of the method: as §1

LCLC-97TM1 = system: LCLC-97TM1
Summary of the method: as §1

NCI-H358 = system: NCI-H358
Summary of the method: as §1

NCI-H1395 = system: NCI-H1395
Summary of the method: as §1

NCI-H1915 = system: NCI-H1915
Summary of the method: as §1

H3255 = system: H3255
Summary of the method: as §1

PC-14 = system: PC-14
Summary of the method: as §1

NCI-H1666 = system: NCI-H1666
Summary of the method: as §1

`O=c1[nH]c2ccccc2n1C1CCN(CCCC(c2ccc(F)cc2)c2ccc(F)cc2)CC1` [Pimozide] + Cc1nc(NC(=O)N2CCC[C@H]2C(N)=O)sc1-c1ccnc(C(C)(C)C(F)(F)F)c1 [Alpelisib] (partner 2 µM) showed a relative viability (NCI-H322M; first compound 0.253 µM) of 0.835, a relative viability (NCI-H322M; first compound 0.8 µM) of 0.819 and a relative viability (NCI-H322M; first compound 2.53 µM) of 0.695. The relative viability (NCI-H322M; first compound 8 µM) was 0.716, the relative viability (SK-MES-1; first compound 0.08 µM) was 0.809 and the relative viability (SK-MES-1; first compound 0.253 µM) was 0.966. It also gave a relative viability (SK-MES-1; first compound 0.8 µM) of 0.874, a relative viability (SK-MES-1; first compound 2.53 µM) of 0.837 and a relative viability (SK-MES-1; first compound 8 µM) of 0.842. For the same compound, the relative viability (NCI-H2085; first compound 0.08 µM) was 0.928, the relative viability (NCI-H2085; first compound 0.253 µM) was 0.962 and the relative viability (NCI-H2085; first compound 0.8 µM) was 0.875. It also gave a relative viability (NCI-H2085; first compound 2.53 µM) of 0.981, a relative viability (NCI-H2085; first compound 8 µM) of 0.864 and a relative viability (NCI-H838; first compound 0.08 µM) of 0.95. The relative viability (NCI-H838; first compound 0.253 µM) was 0.98, the relative viability (NCI-H838; first compound 0.8 µM) was 0.967 and the relative viability (NCI-H838; first compound 2.53 µM) was 1.03. For the same compound, the relative viability (NCI-H838; first compound 8 µM) was 1.04, the relative viability (NCI-H1792; first compound 0.08 µM) was 0.874 and the relative viability (NCI-H1792; first compound 0.253 µM) was 0.661. The relative viability (NCI-H1792; first compound 0.8 µM) was 0.668, the relative viability (NCI-H1792; first compound 2.53 µM) was 0.575 and the relative viability (NCI-H1792; first compound 8 µM) was 0.836. The relative viability (NCI-H2087; first compound 0.08 µM) was 0.847, the relative viability (NCI-H2087; first compound 0.253 µM) was 1.1 and the relative viability (NCI-H2087; first compound 0.8 µM) was 1.01. It also gave a relative viability (NCI-H2087; first compound 2.53 µM) of 0.975, a relative viability (NCI-H2087; first compound 8 µM) of 0.89 and a relative viability (NCI-H1355; first compound 0.08 µM) of 0.81. It also gave a relative viability (NCI-H1355; first compound 0.253 µM) of 0.873, a relative viability (NCI-H1355; first compound 0.8 µM) of 0.811 and a relative viability (NCI-H1355; first compound 2.53 µM) of 0.662. The relative viability (NCI-H1355; first compound 8 µM) was 0.817, the relative viability (ABC-1; first compound 0.08 µM) was 0.915 and the relative viability (ABC-1; first compound 0.253 µM) was 1.03. It also gave a relative viability (ABC-1; first compound 0.8 µM) of 0.834, a relative viability (ABC-1; first compound 2.53 µM) of 0.842 and a relative viability (ABC-1; first compound 8 µM) of 0.675. The relative viability (CAL-12T; first compound 0.08 µM) was 1.15, the relative viability (CAL-12T; first compound 0.253 µM) was 1.07 and the relative viability (CAL-12T; first compound 0.8 µM) was 1.02. For the same compound, the relative viability (CAL-12T; first compound 2.53 µM) was 1.32, the relative viability (CAL-12T; first compound 8 µM) was 0.923 and the relative viability (LK-2; first compound 0.08 µM) was 1.12. It also gave a relative viability (LK-2; first compound 0.253 µM) of 1.05, a relative viability (LK-2; first compound 0.8 µM) of 1.01 and a relative viability (LK-2; first compound 2.53 µM) of 1.01. For the same compound, the relative viability (LK-2; first compound 8 µM) was 0.779, the relative viability (A-427; first compound 0.08 µM) was 1.08 and the relative viability (A-427; first compound 0.253 µM) was 1.05. The relative viability (A-427; first compound 0.8 µM) was 1.14, the relative viability (A-427; first compound 2.53 µM) was 0.987 and the relative viability (A-427; first compound 8 µM) was 1.01. For the same compound, the relative viability (NCI-H1651; first compound 0.08 µM) was 0.911, the relative viability (NCI-H1651; first compound 0.253 µM) was 0.945 and the relative viability (NCI-H1651; first compound 0.8 µM) was 0.945. The relative viability (NCI-H1651; first compound 2.53 µM) was 1.04, the relative viability (NCI-H1651; first compound 8 µM) was 0.926 and the relative viability (NCI-H2228; first compound 0.08 µM) was 0.623. It also gave a relative viability (NCI-H2228; first compound 0.253 µM) of 0.755, a relative viability (NCI-H2228; first compound 0.8 µM) of 0.735 and a relative viability (NCI-H2228; first compound 2.53 µM) of 0.737. The relative viability (NCI-H2228; first compound 8 µM) was 0.482, the relative viability (PC-3 [JPC-3]; first compound 0.253 µM) was 0.964 and the relative viability (PC-3 [JPC-3]; first compound 0.8 µM) was 0.978. The relative viability (PC-3 [JPC-3]; first compound 2.53 µM) was 0.961, the relative viability (PC-3 [JPC-3]; first compound 8 µM) was 0.96 and the relative viability (NCI-H661; first compound 0.08 µM) was 0.759. The relative viability (NCI-H661; first compound 0.253 µM) was 0.594, the relative viability (NCI-H661; first compound 0.8 µM) was 0.592 and the relative viability (NCI-H661; first compound 2.53 µM) was 0.494. For the same compound, the relative viability (NCI-H661; first compound 8 µM) was 0.766, the relative viability (UMC-11; first compound 0.08 µM) was 1.05 and the relative viability (UMC-11; first compound 0.253 µM) was 0.967. For the same compound, the relative viability (UMC-11; first compound 0.8 µM) was 1.05, the relative viability (UMC-11; first compound 2.53 µM) was 1.04 and the relative viability (UMC-11; first compound 8 µM) was 1.19. It also gave a relative viability (LCLC-97TM1; first compound 0.08 µM) of 0.28, a relative viability (LCLC-97TM1; first compound 0.253 µM) of 0.239 and a relative viability (LCLC-97TM1; first compound 0.8 µM) of 0.207. The relative viability (LCLC-97TM1; first compound 2.53 µM) was 0.224, the relative viability (LCLC-97TM1; first compound 8 µM) was 0.271 and the relative viability (NCI-H358; first compound 0.08 µM) was 0.761. For the same compound, the relative viability (NCI-H358; first compound 0.253 µM) was 0.775, the relative viability (NCI-H358; first compound 0.8 µM) was 0.786 and the relative viability (NCI-H358; first compound 2.53 µM) was 0.808. It also gave a relative viability (NCI-H358; first compound 8 µM) of 0.852, a relative viability (NCI-H1395; first compound 0.08 µM) of 1.31 and a relative viability (NCI-H1395; first compound 0.253 µM) of 0.958. For the same compound, the relative viability (NCI-H1395; first compound 0.8 µM) was 1.06, the relative viability (NCI-H1395; first compound 2.53 µM) was 1.16 and the relative viability (NCI-H1395; first compound 8 µM) was 0.952. For the same compound, the relative viability (NCI-H1915; first compound 0.08 µM) was 1.1, the relative viability (NCI-H1915; first compound 0.253 µM) was 1.06 and the relative viability (NCI-H1915; first compound 0.8 µM) was 0.837. The relative viability (NCI-H1915; first compound 2.53 µM) was 1.08, the relative viability (NCI-H1915; first compound 8 µM) was 0.997 and the relative viability (H3255; first compound 0.253 µM) was 0.569. For the same compound, the relative viability (H3255; first compound 0.8 µM) was 0.599, the relative viability (H3255; first compound 2.53 µM) was 0.754 and the relative viability (H3255; first compound 8 µM) was 0.711. The relative viability (PC-14; first compound 0.08 µM) was 0.606, the relative viability (PC-14; first compound 0.253 µM) was 0.911 and the relative viability (PC-14; first compound 0.8 µM) was 0.928. It also gave a relative viability (PC-14; first compound 2.53 µM) of 1.05, a relative viability (PC-14; first compound 8 µM) of 0.955 and a relative viability (NCI-H1666; first compound 0.08 µM) of 0.948. The relative viability (NCI-H1666; first compound 0.253 µM) was 1.01, the relative viability (NCI-H1666; first compound 0.8 µM) was 0.886 and the relative viability (NCI-H1666; first compound 2.53 µM) was 0.874. For the same compound, the relative viability (NCI-H1666; first compound 8 µM) was 0.728.
